{"source": "patent US11191809B2", "about": "“Composition in powder form comprising iron-milk protein complexes and probiotic bacteria” (NESTEC S.A., priority 2016, dated 2021)", "tested_on": "probiotic bacteria", "test": "Viability of probiotic bacteria with iron sources (general finding of the inventors)", "format": "cell-based", "details": "general statement; reconstitution of powder with a liquid", "data": [{"smiles": "O.O.O.O.O.O.O.O=S(=O)([O-])[O-].[Fe+2]", "note": "[ferrous sulphate heptahydrate]", "values": [{"measurement": "loss of viability of probiotic bacteria", "value": "significant loss of viability"}]}]}
